Reference: patent US20250114386A1, “COMBINATION OF A GLYCOSYLATION INHIBITOR WITH ONE CAR CELL THERAPY FOR TREATING CANCER” (OSPEDALE SAN RAFFAELE S.R.L., priority 2018, published 2025)
“Also recorded” adds a separate entry of the source.

Columns and labels:
[1] = tested on: sulfation (PAPS formation); settings: chlorate usually 10-30 mM; cited from earlier work
[2] = tested on: T3M4 pancreatic tumour cells; assay: PHA-L staining of surface N-glycosylation after 2DG treatment; assay type: cell-based
Protocol: (§1) For dose assessment, tumour cells were exposed to 2, 4, 8, 16 or 64 mM 2DG (D8375, Sigma-Aldrich) and, after 48 h, absolute cell numbers and percentages of necrotic and proliferating cells were determined by FACS using Flow-Count Fluorospheres (BeckmanCoulter), 7-AAD and CFSE, respectively. For pharmacokinetic studies, tumour cells were treated with 4 mM 2DG and surface N-glycosylation was assessed by PHA-L staining at different time points from treatment or from wash-out to assess the kinetic of de-glycosylation and glycosylation, respectively. For safety studies, buffy coat cells were treated with 4 mM 2DG for 18 hours in the presence of IL-2 (100 IU/mL; Chiron), IL-21 (10 ng/ml; Peprotech) and IL-15 (5 ng/mL; Peprotech) before assessment of the glyco-phenotype by PHA-L staining and of cell viability by 7aad/AnnexinV staining.
(§2) The inventors used mAbs specific for human CD44v6 (e-Bioscience), CD3, CD45, NGFR, LAG3 (BD Bioscience), HLA-DR, PD1, TIM3, (Biolegend), CD57 (Miltenyi Biotec). To determine cell vitality, 7-Aminoactinomicin D (7-AAD), AnnexinV or DAPI reagents were used. For LV transduced tumour cells, GFP expression was analysed by direct fluorescence. Samples were run through a fluorescence-activated cell sorting (FACS) Canto flow cytometer (BD Biosciences) and data were analysed with the FlowJo software (Tree Star, Inc.). For branched N-glycans expression analysis, cells were incubated with biotinylated Phaseolus vulgaris Leukoagglutinin (PHA-L; Caderlane) for 1 hour according to manufacturer's instructions, washed and incubated with PE-conjugated streptavidin and analysed by flow cytometry.

[3] = tested on: T3M4 pancreatic tumour cells; assay: Western blot / biotin-enrichment assay of protein de-glycosylation; assay type: cell-based
Protocol: […] De-glycosylation was assessed as molecular weight shift. For selective cell membrane protein analysis, biotinilation assay was performed according to manufacturer instructions (Thermo Scientific). Treatment of cell lysates with PNGase F (NEB, P0704) was performed as recommended by the manufacturer's instructions.

[4] = tested on: T3M4 pancreatic tumour cells; assay: Lactate production assay (glycolysis); assay type: cell-based; settings: low doses of 2DG, 48 h
Protocol: Lactate production was assessed after 48 hours of 2DG treatment at the doses of 2, 4, 8, 16 or 64 mM 2DG using the Lactate-Glo assay (Promega) according to the manufacturer's instructions.

[5] = tested on: T3M4 pancreatic tumour cells; assay: Tumour cell survival (7-AAD) and proliferation (CFSE) after 2DG; assay type: cell-based; settings: low doses of 2DG (4 mM, 48 hours)
Protocol: as §1

[6] = tested on: T3M4 and PT45 pancreatic tumour cells; assay: In vitro co-culture killing assay with CD44v6 CAR-T cells; assay type: cell-based
Protocol: (§3) CEA or CD44v6 CAR-T cells from healthy donors were co-cultured at 1:5, 1:10, 1:25 E:T ratios with target cells in the absence of IL-7 and IL-15. T cells transduced with an irrelevant CAR (CD19 CAR T) were used as control. After 24 h or 96 h, co-cultures were analysed by FACS using Flow-Count Fluorospheres (BeckmanCoulter) and target cell killing, expressed as Elimination Index, was calculated as follows: 1−(number of residual target cells with experimental CAR-T cells/number of residual target with irrelevant CAR-T cells). In co-culture assays combining CAR-T cells with 2DG, target cells were exposed to 4 mM 2DG for 48 h before being washed, co-cultured with experimental or irrelevant CAR-T cells and analysed as above. In these experiments, the Elimination Index of 2DG alone was calculated as follows: 1−(number of target cells cultivated in medium supplemented with 2DG/number of target cells cultivated in medium alone). Co-culture of Jurkat CAR-TPR and tumour cells was performed at 1:1 E:T ratio. As control, Jurkat CAR-TPR cells were treated with either 50 ng/mL of phorbol myristate acetate (PMA) or 1 g/mL of Ionomycin or a combination of the two. Upregulation of fluorescence was assessed after 24 hours

[7] = tested on: healthy peripheral blood mononuclear cells (PBMCs); assay: Safety study on buffy coat cells (PHA-L staining, 7aad/AnnexinV); assay type: cell-based; settings: 4 mM 2DG, 18 hours
Protocol: as §1

[8] = tested on: human primary keratinocytes; assay: Primary keratinocytes: western blot and co-culture with CD44v6 CAR-T cells; assay type: cell-based
Protocol: as §3, with “As control, Jurkat CAR-TPR cells were treated with either 50 ng/mL of phorbol myristate acetate (PMA) or 1 g/mL of Ionomycin or a combination of the two.” left out
Tumour cells or healthy primary keratinocytes were treated with either medium alone or supplemented with 4 mM 2DG for 48 h, lysed and subjected to SDS polyacrylamide gel electrophoresys. De-glycosylation was assessed as molecular weight shift. […]

[9] = tested on: T3M4 pancreatic adenocarcinoma xenograft; assay: In vivo efficacy, pancreatic adenocarcinoma xenograft mouse model; parameters: species or system NSG mice
Protocol: All experiments were approved by the Institutional Animal Care and Use Committee (IACUC) of San Raffaele University Hospital and Scientific Institute and by the Italian Governmental Health Institute (Rome, Italy). NSG mice (NOD.Cg-Prkdcscid Il2rgtm1Wj1) were obtained from the Jackson Laboratories and kept in a specific-pathogen-free (SPF) facility within individually ventilated cages. […] At day […] and 7 from tumour engraftment, when the tumour burden was high, mice were injected intraperitoneally (i.p.) with 500 mg/kg 2DG. At day 7 mice were infused intravenously (i.v.) with 5×10^5 of either CD44v6 or CD19 CAR T cells as control. In another set of experiments, mice were treated with 500 mg/kg 2DG at day 2 and 3 and received 10×10^5 of either CD44v6 or CD19 CAR T cells at day 3, when the tumour burden was low. Tumour growth was monitored by bioluminescence assay using the QUANTI-Luc detection reagent (InvivoGen) and expressed as relative light units (RLUs), according to the manufacturer instructions. Mice were sacrificed when RLUs were >10^6.

[10] = tested on: PT45, BxPC3 and T3M4 pancreatic tumour cells; assay: In vitro co-culture killing assay with CEA CAR-T cells; assay type: cell-based
Protocol: as §3

[11] = tested on: 5637, H1975 and PC9 cells; assay: In vitro co-culture killing assay, other tumour types; assay type: cell-based; settings: 4 mM 2DG 48 hours before co-culture
Protocol: as §3

[12] = tested on: T3M4 pancreatic tumour cells; assay: Surface expression of beta-1 integrin and CD44v6 by FACS; assay type: cell-based; settings: 4 mM 2DG, 48 hours
Protocol: as §2

[13] = 2DG alone or combined with chemotherapy and radiotherapy; cited from earlier work
[14] = T3M4, tunicamycin 100 ng/ml, 48 h

[O-][Cl+2]([O-])O [chlorate]
inhibition of sulfation [1]: > 90%

O=CC[C@@H](O)[C@H](O)[C@H](O)CO [2DG, 2-Deoxy-D-glucose]
duration of de-glycosylation after washing out 2DG ([2]; 4 mM 2DG up to 48 hours, then wash-out): 24 h
inhibition of N-glycosylation (binding to PHA-L) ([2]; 4 mM 2DG, 48 hours): reduced binding to PHA-L
time at which de-glycosylation is detectable ([2]; 4 mM 2DG, PHA-L staining): ≤ 5 h
inhibition of N-glycosylation (western blot, beta-1 integrin) ([3]; 2DG 4 mM or 16 mM, 48 hours, total cell lysates): molecular-weight shift of beta-1 integrin
de-glycosylated forms of beta-1 integrin and CD44v6 among surface proteins ([3]; biotin-enrichment western blot): clearly detected among surface proteins
inhibition of glycolysis (lactate production) [4]: unable to inhibit glycolysis
tumour cell proliferation (CFSE dilution) [5]: no impact
tumour cell viability (7AADpos cells) [5]: no impact on tumour cell viability
nature of the combined effect of 2DG and CD44v6 CAR-T cells ([6]; PT45 and T3M4): synergic
individual antitumor activity of 2DG alone ([6]; PT45 and T3M4, 4 mM 2DG 48 h): lacking
elimination of tumour cells by CD44v6 CAR-T cells after 2DG pre-treatment ([6]; PT45 and T3M4, 4 mM 2DG 48 h before co-culture): significantly increasing their elimination
PBMCs glycosylation (PHA-L staining) [7]: failed to interfere with PBMCs glycosylation
viability of CD3+ T cells, CD19+ B cells, CD14+ monocytes and CD15+ granulocytes [7]: did not impact on the viability
increase of keratinocyte elimination by CD44v6 CAR-T cells ([8]; 2DG 48 hours before co-culture): failed
keratinocyte glycosylation ([8]; 2DG 48 hours, same dose as for tumour cells): failed to inhibit keratinocyte glycosylation
frequency of tumour-infiltrating CD44v6 CAR-T cells expressing exhaustion and senescence markers ([9]; at sacrifice, mice that received 2DG vs not): significantly lower frequency of cells expressing exhaustion and senescence markers
antitumor effect of 2DG alone ([9]; high tumor burden): unable to mediate any antitumor effect alone
less tumor with 2DG in mice receiving CAR-T cells ([9]; high tumor burden, at 7d, p<0,05): 5 fold
antitumor benefit of 2DG in mice receiving CD44v6 CAR-T cells ([9]; high tumour burden (HTB) setting, 500 mg/kg 2DG i.p., low CAR-T cell dose): significantly benefited from 2DG administration
cytokine release (IFNγ) by CEA CAR-T cells with 2DG-treated tumour cells ([10]; 24 hours after stimulation): increased
recognition of CEAneg tumour cells by CEA CAR-T cells after 2DG pre-treatment ([10]; CEAneg PT45, 4 mM 2DG 48 hours): did not increase recognition
elimination of CEApos tumour cells by CEA CAR-T cells after 2DG pre-treatment ([10]; CEApos BxPC3 and T3M4, 4 mM 2DG 48 hours): significantly improved the elimination
CEA CAR-T cell activation (CD69, Jurkat TPR) with 2DG-treated tumour cells ([10]; T3M4, 4 mM 2DG): increased CAR-T cell activation
elimination of highly glycosylated tumours by CD44v6 CAR-T cells after 2DG [11]: drastically increase the elimination
surface expression levels of beta-1 integrin and CD44v6 [12]: maintained
safety and tolerability in patients [13]: safe and well tolerated; also recorded: good tolerability

tunicamycin
CD44v6 CAR-T cell activation (CD69) after tunicamycin treatment of tumour cells [6, 14]: confirmed
elimination of tumour cells by CD44v6 CAR-T cells after tunicamycin treatment [6, 14]: confirmed
